Measured values from ChEMBL document CHEMBL5120844, “Discovery of novel non-steroidal selective glucocorticoid receptor modulators by structure- and IGN-based virtual screening, structural optimization, and biological evaluation” (Eur J Med Chem, 2022).
One block for each compound: values may come before it. The source made the active and inactive calls. The rule behind the calls is not given here.

Key:
[1] = Inhibition of NF-kappaB transcriptional activity in human HeLa cells transfected with NF-kappaB-Luc by dual-luciferase reporter gene assay; type: cell-based
[2] = system: HeLa; assay: Inhibition of NF-kappaB transcriptional activity in human HeLa cells transfected with NF-kappaB-Luc at 10 uM by dual-luciferase reporter gene assay relative to control; type: cell-based
[3] = system: MG-63; assay: Induction of osteoporosis in human MG-63 cells assessed as decrease in RANKL mRNA expression level at 10 uM by qRT-PCR analysis; type: functional, cell-based
[4] = system: MG-63; assay: Induction of osteoporosis in human MG-63 cells assessed as decrease in OPG mRNA expression level at 10 uM by qRT-PCR analysis; type: functional, cell-based
[5] = system: NIH3T3; assay: Cytotoxicity against mouse 3T3 cells assessed as reduction in cell viability after 24 hrs by MTT assay; type: toxicity, cell-based; conditions: nih3t3, 24 h
[6] = system: RAW264.7; assay: Anti-inflammatory activity against mouse RAW264.7 cells assessed as reduction in LPS-induced IL-6 mRNA expression level preincubated for 1 hr followed by LPS addition and measured after 16 hrs by qRT-PCR analysis; type: functional, cell-based; conditions: time 17.0 hrs
[7] = system: RAW264.7; assay: Anti-inflammatory activity against mouse RAW264.7 cells assessed as reduction in LPS-induced COX-2 mRNA expression level preincubated for 1 hr followed by LPS addition and measured after 16 hrs by qRT-PCR analysis; type: functional, cell-based; conditions: time 17.0 hrs
[8] = system: RAW264.7; assay: Anti-inflammatory activity against mouse RAW264.7 cells assessed as reduction in LPS-induced IL-1beta mRNA expression level preincubated for 1 hr followed by LPS addition and measured after 16 hrs by qRT-PCR analysis; type: functional, cell-based; conditions: time 17.0 hrs
[9] = target: T1, Glucocorticoid receptor (Homo sapiens) (UniProt P04150); assay: (§1) Binding affinity to recombinant human GST-tagged glucocorticoid receptor ligand binding domain by TR-FRET assay relative to control; conditions: filed as modulator, DDE = dose-dependent effect
T1 sequence (whole entry): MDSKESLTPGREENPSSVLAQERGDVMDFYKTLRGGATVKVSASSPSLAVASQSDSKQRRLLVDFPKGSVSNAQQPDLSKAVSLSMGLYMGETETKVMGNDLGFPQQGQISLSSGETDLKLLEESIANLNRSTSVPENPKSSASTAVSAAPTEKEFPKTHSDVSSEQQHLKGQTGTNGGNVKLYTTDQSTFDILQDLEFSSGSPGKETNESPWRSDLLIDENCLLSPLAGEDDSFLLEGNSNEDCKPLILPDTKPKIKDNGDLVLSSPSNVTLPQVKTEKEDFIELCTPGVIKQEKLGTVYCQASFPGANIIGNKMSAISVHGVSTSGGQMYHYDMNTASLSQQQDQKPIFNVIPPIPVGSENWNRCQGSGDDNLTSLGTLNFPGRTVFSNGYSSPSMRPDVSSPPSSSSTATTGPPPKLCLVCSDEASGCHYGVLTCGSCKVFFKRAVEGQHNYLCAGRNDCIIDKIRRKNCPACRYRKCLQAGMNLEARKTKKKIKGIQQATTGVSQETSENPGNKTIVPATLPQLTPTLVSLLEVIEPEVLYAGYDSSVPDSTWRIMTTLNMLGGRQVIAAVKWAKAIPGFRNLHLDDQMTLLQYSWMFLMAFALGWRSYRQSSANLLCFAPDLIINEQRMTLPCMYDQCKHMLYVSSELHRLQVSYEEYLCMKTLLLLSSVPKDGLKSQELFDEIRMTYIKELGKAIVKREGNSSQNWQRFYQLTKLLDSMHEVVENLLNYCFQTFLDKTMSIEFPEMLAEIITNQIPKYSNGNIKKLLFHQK

[10] = target: T2, Glucocorticoid receptor (Homo sapiens, UniProt P04150); assay: as §1
T2 sequence (P04150 whole entry): T1 sequence (whole entry)

[11] = system: RAW264.7; assay: Cytotoxicity against mouse RAW264.7 cells assessed as reduction in cell viability at 25 uM incubated for 48 hrs by MTT assay; type: toxicity, cell-based; conditions: raw264.7, 48 h
[12] = system: RAW264.7; assay: Anti-inflammatory activity against mouse RAW264.7 cells assessed as inhibition of LPS-induced NO production at 25 uM incubated for 16 hrs by Greiss reagent assay; type: functional, cell-based
[13] = target: T1, Glucocorticoid receptor (Homo sapiens); assay: Binding affinity to recombinant human GST-tagged glucocorticoid receptor ligand binding domain at 10 uM by TR-FRET assay relative to control; conditions: filed as modulator
[14] = system: A549; assay: Anti-inflammatory activity against human A549 cells assessed as reduction in TNFalpha induced IL-1beta mRNA expression level by qRT-PCR analysis; type: functional, cell-based
[15] = target: T3, Mineralocorticoid receptor (Homo sapiens) (UniProt P08235); assay: Agonist activity at mineralocorticoid receptor (unknown origin) expressed in HEK293T cells co-transfected with pGL4.36[luc2P MMTV Hygro]/Renilla at 10 to 25 uM incubated for 16 hrs by luciferase reporter gene assay; type: cell-based; conditions: filed as agonist, dose 10-25 µM
T3 sequence (whole entry): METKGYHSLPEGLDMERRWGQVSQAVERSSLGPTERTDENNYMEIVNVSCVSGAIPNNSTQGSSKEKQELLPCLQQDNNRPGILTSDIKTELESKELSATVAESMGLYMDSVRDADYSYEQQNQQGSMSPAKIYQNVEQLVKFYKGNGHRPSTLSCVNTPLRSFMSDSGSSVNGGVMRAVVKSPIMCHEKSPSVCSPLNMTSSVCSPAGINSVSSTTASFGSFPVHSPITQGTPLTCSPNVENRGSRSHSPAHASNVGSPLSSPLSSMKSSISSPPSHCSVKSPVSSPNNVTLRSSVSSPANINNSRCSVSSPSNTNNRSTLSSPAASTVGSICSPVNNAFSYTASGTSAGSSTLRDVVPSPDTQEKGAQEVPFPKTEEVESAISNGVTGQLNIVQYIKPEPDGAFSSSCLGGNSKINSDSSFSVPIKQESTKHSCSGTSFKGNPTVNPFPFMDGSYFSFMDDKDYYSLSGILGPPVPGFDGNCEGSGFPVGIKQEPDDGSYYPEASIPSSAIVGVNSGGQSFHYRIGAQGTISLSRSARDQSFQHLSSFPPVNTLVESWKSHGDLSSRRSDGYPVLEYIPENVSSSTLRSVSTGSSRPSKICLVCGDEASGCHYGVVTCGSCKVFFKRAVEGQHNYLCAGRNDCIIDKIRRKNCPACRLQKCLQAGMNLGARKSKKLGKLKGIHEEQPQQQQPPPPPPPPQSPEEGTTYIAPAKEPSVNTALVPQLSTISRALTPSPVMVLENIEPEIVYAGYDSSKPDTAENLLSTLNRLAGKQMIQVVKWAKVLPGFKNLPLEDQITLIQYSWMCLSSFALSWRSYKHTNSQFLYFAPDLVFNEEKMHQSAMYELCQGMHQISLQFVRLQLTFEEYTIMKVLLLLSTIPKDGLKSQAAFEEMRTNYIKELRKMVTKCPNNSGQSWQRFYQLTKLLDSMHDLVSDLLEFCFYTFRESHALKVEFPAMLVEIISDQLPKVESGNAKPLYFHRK

[16] = system: RAW264.7; assay: Anti-inflammatory activity against mouse RAW264.7 cells assessed as reduction in LPS-induced […] mRNA expression level preincubated for 1 hr followed by LPS addition and measured after 16 hrs by qRT-PCR analysis; type: functional, cell-based; conditions: time 17.0 hrs
[17] = target: T4, Progesterone receptor (Homo sapiens) (UniProt P06401); assay: Agonist activity at progesterone receptor (unknown origin) expressed in PC3 cells co-transfected with ARR3tk-luciferase/Renilla at 10 to 25 uM incubated for 16 hrs by luciferase reporter gene assay; type: cell-based; conditions: PC-3, filed as agonist, dose 10-25 µM
T4 sequence (whole entry): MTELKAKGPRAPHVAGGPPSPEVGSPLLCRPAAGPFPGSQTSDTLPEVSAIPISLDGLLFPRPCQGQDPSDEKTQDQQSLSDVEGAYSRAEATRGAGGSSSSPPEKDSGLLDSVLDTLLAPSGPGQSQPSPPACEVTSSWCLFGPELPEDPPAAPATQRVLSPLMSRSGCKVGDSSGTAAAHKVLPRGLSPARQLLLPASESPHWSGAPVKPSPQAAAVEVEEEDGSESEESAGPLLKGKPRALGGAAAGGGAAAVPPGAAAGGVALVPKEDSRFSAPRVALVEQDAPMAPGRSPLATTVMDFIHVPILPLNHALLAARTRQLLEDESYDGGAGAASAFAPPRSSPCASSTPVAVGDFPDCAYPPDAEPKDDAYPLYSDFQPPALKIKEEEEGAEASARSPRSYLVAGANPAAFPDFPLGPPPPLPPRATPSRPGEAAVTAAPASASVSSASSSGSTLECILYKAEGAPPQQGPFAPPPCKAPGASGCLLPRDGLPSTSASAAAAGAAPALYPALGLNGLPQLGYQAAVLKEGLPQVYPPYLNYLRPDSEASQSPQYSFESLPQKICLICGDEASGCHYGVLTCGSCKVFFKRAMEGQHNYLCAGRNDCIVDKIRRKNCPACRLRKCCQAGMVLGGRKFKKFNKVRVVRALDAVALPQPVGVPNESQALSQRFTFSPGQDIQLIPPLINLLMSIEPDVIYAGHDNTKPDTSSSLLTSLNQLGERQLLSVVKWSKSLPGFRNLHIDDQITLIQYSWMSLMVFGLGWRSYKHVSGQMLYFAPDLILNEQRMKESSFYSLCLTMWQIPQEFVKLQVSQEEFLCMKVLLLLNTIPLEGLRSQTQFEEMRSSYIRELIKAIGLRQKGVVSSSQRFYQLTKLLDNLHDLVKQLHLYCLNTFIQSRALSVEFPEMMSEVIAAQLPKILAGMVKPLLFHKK

IC50 [1]: 0.99 µM
SMILES: O=C(c1ccc(Cn2c(=S)[nH]c3ccsc3c2=O)cc1)N1CCc2ccccc2C1
inhibition [2]: 106%

SMILES: CC(C)[C@H](NC(=O)C(C)(F)F)[C@H](Oc1ccc2c(cnn2-c2ccc(=O)n(C)c2)c1)c1ccccc1
Activity [3]: Non-Toxic | Activity [4]: Toxic

SMILES: O=C(c1ccc2c(=O)n(Cc3ccc(Cl)cc3)c(=S)[nH]c2c1)N(CCO)Cc1ccccc1
inhibition [2]: 75.8%

IC50 [1]: 6.61 µM
SMILES: O=C(Nc1ccccc1C(=O)NCc1cccnc1)c1ccc(CN2CCc3ccccc3C2)cc1
inhibition [2]: 89%

SMILES: O=C(c1ccc(Cn2c(=S)[nH]c3ccc(Br)cc3c2=O)cc1)N1CCN(c2cccc(Cl)c2)CC1
inhibition [2]: 54.1%

SMILES: CC(NC(=O)c1ccc(CN2CC(=O)N3CSC[C@@H]3C2=O)cc1)c1ccccc1 (some centres not stated)
inhibition [2]: 34.1%

IC50 [1]: 3.8 µM
SMILES: C[C@@H](NC(=O)c1ccc(Cn2c(=S)[nH]c3ccsc3c2=O)cc1)c1ccccc1
Activity [5]: Non-Toxic | Activity [6]: Active | Activity [7]: Active | Activity [8]: Active

IC50 [1]: 1.07 µM
SMILES: COc1ccccc1Nc1nc(C(=O)N(CC(=O)NC2CC2)Cc2ccccc2)cs1
inhibition [2]: 99.9%

SMILES: Cc1ccc(S(=O)(=O)NCc2ccc(C(=O)NC(C)c3ccccc3)cc2)cc1 (configuration not stated)
inhibition [2]: 51.3%

SMILES: CC(NC(=O)c1ccc(CN2CCc3ccccc3C2)cc1)c1ccccc1 (configuration not stated)
inhibition [2]: 49.1%

Activity [9]: Dde | IC50 [10]: 2.05 µM | Activity [13]: < 60% | IC50 [1]: 2.32 µM
SMILES: CC(NC(=O)c1ccc(Cn2c(=S)[nH]c3ccsc3c2=O)cc1)c1ccccc1 (configuration not stated)
Activity [3]: Non-Toxic | Activity [11]: Non-Toxic | inhibition [12]: Active | Activity [6]: Active | Activity [4]: Toxic | inhibition [2]: 86.9% | Activity [14]: Active | Activity [7]: Active | Activity [8]: Active

IC50 [1]: 1.92 µM
SMILES: C[C@H](NC(=O)c1ccc(Cn2c(=S)[nH]c3ccsc3c2=O)cc1)c1ccccc1
Activity [5]: Non-Toxic | Activity [6]: Active | Activity [7]: Active | Activity [8]: Active

Activity [15]: Active | Activity [17]: Active
SMILES: C[C@@H]1C[C@H]2[C@@H]3CCC4=CC(=O)C=C[C@]4(C)[C@@]3(F)[C@@H](O)C[C@]2(C)[C@@]1(O)C(=O)CO
Activity [3]: Non-Toxic | inhibition [12]: Active | Activity [4]: Toxic | Activity [16]: Active | Activity [14]: Active | Activity [8]: Active

IC50 [1]: 18.3 µM
SMILES: CC(NC(=O)c1ccc(/C=C2/Sc3ccccc3NC2=O)cc1)c1ccc2c(c1)OCCO2 (configuration not stated)
inhibition [2]: 67%

IC50 [1]: 5.14 µM
SMILES: CC(NC(=O)c1ccc(Cn2c(=S)[nH]c3ccsc3c2=O)cc1)c1ccc2c(c1)OCO2 (configuration not stated)
inhibition [2]: 94.6%

SMILES: Cn1c(=O)n(C)c2cc(NC(=O)c3ccc(CN4CCc5ccccc5C4)cc3)ccc21
inhibition [2]: 10.6%

IC50 [1]: 7.38 µM
SMILES: COc1ccc(CNC(=O)c2ccc(Cn3c(=S)[nH]c4ccsc4c3=O)cc2)cc1
inhibition [2]: 93.1%

SMILES: O=C(NCc1cccnc1)c1ccc(Cn2c(=S)[nH]c3ccsc3c2=O)cc1
inhibition [2]: 76%
